Reference: patent US20240384268A1, “Oligonucleotides” (Hudson Institute of Medical Research, priority 2021, published 2024)
In the oligonucleotide strings, read from the 5' end, every base follows the letter of its sugar. An asterisk marks phosphorothioate; unmarked linkages are phosphodiester. Other units and linkages are bracketed, terminal groups are in braces. A string of capitals states the bases alone. d = 2'-deoxy (DNA); m = 2'-O-methyl

Legend:
Type in all cases: cell-based
mouse cGAS = target: T1, mouse cGAS (Mus musculus, UniProt Q8C6L5); experiment: ISD45-driven ISRE-luciferase in mouse LL171 cells; conditions: 2′OMe or PS oligos 50-600 nM, ISD45 2.5 μg/ml overnight
T1 construct: endogenous in cells; host or cells: LL171 (mouse L929 cells with ISRE-Luciferase)
T1 sequence (Q8C6L5 whole entry): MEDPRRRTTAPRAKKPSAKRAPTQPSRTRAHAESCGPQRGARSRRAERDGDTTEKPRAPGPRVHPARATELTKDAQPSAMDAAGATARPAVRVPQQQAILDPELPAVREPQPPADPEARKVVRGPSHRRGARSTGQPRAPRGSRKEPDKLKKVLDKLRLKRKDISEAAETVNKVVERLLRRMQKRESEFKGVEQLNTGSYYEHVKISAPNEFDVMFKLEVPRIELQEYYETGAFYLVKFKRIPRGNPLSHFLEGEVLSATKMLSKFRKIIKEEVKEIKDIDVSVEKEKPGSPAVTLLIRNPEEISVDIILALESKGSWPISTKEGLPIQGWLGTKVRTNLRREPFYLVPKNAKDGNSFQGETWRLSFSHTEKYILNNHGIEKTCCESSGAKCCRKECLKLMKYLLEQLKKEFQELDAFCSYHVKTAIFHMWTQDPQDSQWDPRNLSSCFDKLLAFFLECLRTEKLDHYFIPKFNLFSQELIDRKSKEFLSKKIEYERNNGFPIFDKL
Procedure: (§1) In such examples, inhibition of cGAS activity can be identified by observation of an overall decreased cGAS response of the cell population, or a lower proportion of cells having cGAS-positive activity as compared to positive control condition in which cells are treated with cGAS agonist in the absence of the oligonucleotide (or in the presence of an appropriate control inhibitory agent). In one example, THP-1 or HT-29 cells are transfected with ISD70 and incubated with an oligonucleotide. cGAS activity can then be determined by cytokine (e.g., IP-10 and/or IFNβ) expression (e.g., gene and/or protein expression) and/or secretion levels, such as by ELISA. A similar assay can be performed with LL171 cells transfected with ISD45. […] By way of example, cGAS enzymatic activity may be assessed in vitro using recombinant cGAS and then measuring activity thereof by way of a cGAMP ELISA.
(§2) For cGAS stimulations, cells were treated for indicated duration with ASOs, prior to transfection with ISD70 (human cells) or ISD45 (mouse cells) (the ASOs were not washed off prior to ISD transfection unless otherwise indicated). The cGAS ligands ISD45 (Stetson and Medzhitov, 2006) and ISD70 (also known as VACV-70 (Unterholzner et al., 2010)) (Table 1) were resuspended as follows: 5 1d of sense and 5 μl of antisense strands at 10 μg/μl were added to 90 μl PBS under sterile conditions, heated at 75° C. for 30 min, prior to letting cool down at room temperature and aliquoting (stock at 1 μg/1 l). The ISDs were transfected at a concentration of […] at a ratio of 1 μg:1 μl with Lipofectamine 2000 in Opti-MEM (Thermo Fisher Scientific). HEK-TLR3, HEK-TLR7 and […] were treated with indicated concentration of ASOs for 20-50 min, prior to stimulation with poly(I:C) (Invivogen), R848 (Invivogen), Motolimod (MedChemExpress) and the Class B CpG oligonucleotides ODN 2006 (synthesised by IDT and resuspended in RNase-free TE buffer [Table 1]), respectively. The TLR2/1 agonist PAM3CSK4 (Invivogen), the TLR4 agonist lipopolysaccharide (Invivogen), the Class B CpG oligonucleotides ODN 1826 (synthesised by IDT and resuspended in RNase-free TE buffer), the mouse Sting agonist DMXAA (Cayman) and the human STING agonist (compound #3 from (Raanjulu et al., 2018), referred to as GSK herein—kind gift from Cancer Therapeutics CRC, Australia) were used at indicated concentrations. Aspirin (Sigma—A2093) was resuspended in pure medium to 10 mM, filter sterilised and added to the cells at 2 mM final. All ASOs were synthesised by Integrated DNA Technologies (IDT), and resuspended in RNase-free TE buffer, pH 8.0 (Thermo Fisher Scientific). Cell viability was assessed by adding 1× fresh resazurin solution to the wells (10λ solution made up with 7 mg resazurin [Sigma—R7017] dissolved in 3.5 ml PBS, sterile filtered at […]) for 4 h, prior to reading at with a Fluostar OPTIMA (BMG LABTECH) plate-reader (fluorescence: Excitation 535 nm, Emission 590); wells with medium only and 1× resazurin were used as blanks.
Following transfection, the cells were collected from the 6-wells and aliquoted into 96-wells, just before ASO and overnight TLR stimulation (as above described).

cGAS [1] = target: T2, cGAS (Homo sapiens, UniProt Q8N884); experiment: ISD70-driven IP-10 (and IFN-β) production in THP-1 cells, ELISA; design: endogenous in cells; host or cells: THP-1 (undifferentiated); conditions: THP-1; 2′OMe or PS oligos, 100-250 nM, pre-treatment as in figure legends; ISD70 2.5 μg/ml
T2 sequence (Q8N884 whole entry): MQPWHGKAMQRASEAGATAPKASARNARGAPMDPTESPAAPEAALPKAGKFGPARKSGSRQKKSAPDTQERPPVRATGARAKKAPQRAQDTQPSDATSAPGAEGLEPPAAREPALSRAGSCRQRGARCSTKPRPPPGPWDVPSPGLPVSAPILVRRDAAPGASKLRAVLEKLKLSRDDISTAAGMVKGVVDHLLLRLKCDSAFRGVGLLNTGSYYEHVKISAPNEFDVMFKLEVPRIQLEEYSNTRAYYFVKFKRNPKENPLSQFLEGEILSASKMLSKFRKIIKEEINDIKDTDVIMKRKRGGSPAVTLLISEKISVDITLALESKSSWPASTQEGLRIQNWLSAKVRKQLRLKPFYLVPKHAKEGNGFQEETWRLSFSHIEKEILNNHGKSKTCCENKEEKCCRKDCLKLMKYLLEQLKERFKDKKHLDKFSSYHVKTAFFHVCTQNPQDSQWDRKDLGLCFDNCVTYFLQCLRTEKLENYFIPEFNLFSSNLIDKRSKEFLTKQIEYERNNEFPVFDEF
Procedure: The ability of an oligonucleotide to inhibit cGAS activity can, for example, be analysed by incubating cells which express cGAS with an oligonucleotide, then stimulating said cells with a cGAS agonist (e.g., 70-bp interferon stimulating DNA or ISD70; 45-bp interferon stimulating DNA or ISD45), and analysing the overall cGAS response in the cell population, or analysing the proportion of cells having cGAS-positive activity after a defined period of time.
as §1, §2

human TLR9 = target: T3, human TLR9 (Homo sapiens, UniProt Q9NR96); experiment: HEK-TLR9 NF-κB-luciferase reporter, ODN2006 stimulation; conditions: HEK-TLR9; 500 nM 2′OMe or PS oligos; 200 nM ODN2006
T3 construct: HA; host or cells: 293XL-hTLR9-HA (HEK293)
T3 sequence (Q9NR96 26-1032): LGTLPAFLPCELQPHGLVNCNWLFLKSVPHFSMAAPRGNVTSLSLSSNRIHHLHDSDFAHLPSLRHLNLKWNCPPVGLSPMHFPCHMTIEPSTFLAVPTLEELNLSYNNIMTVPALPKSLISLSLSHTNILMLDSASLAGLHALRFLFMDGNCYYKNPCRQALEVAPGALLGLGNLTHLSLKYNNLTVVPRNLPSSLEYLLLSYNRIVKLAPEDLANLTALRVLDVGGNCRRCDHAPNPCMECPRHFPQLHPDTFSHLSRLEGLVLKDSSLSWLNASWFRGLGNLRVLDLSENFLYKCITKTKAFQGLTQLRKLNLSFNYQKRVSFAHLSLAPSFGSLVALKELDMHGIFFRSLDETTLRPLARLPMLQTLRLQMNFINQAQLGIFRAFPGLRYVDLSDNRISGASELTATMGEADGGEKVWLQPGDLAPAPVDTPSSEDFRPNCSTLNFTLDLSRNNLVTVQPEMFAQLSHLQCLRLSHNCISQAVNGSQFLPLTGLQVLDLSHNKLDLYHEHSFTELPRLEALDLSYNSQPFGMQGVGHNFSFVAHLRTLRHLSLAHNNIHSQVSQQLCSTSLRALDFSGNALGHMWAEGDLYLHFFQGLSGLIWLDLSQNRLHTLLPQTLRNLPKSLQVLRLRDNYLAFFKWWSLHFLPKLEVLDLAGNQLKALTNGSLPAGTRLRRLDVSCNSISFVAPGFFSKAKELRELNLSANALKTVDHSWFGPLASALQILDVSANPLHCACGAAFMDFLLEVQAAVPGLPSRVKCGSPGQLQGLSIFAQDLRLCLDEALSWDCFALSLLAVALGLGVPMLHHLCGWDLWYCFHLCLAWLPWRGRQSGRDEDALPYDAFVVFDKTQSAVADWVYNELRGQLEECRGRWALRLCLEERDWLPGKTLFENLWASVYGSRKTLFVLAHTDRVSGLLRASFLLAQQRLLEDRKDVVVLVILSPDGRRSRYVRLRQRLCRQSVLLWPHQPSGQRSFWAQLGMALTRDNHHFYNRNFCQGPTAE
Procedure: In such examples, inhibition of TLR9 activity can be identified by observation of an overall decreased TLR9 response of the cell population, or a lower proportion of cells having TLR9-positive activity as compared to positive control condition in which cells are treated with TLR9 agonist in the absence of the oligonucleotide (or in the presence of an appropriate control inhibitory agent). In one example, HEK cells are transfected with TLR9 and a NF-κB reporter and incubated with an oligonucleotide and then stimulated with a TLR9 agonist. TLR9 activity can then be determined by a luciferase assay. TLR9 activity can also be analysed by measuring cytokine levels (e.g., IFN, IL-6, TNF and IL-12), for example by ELISA.
as §2
Following transfection, the cells were collected from the 6-wells and aliquoted into 96-wells, just before ASO and overnight TLR stimulation (as above described). Similarly, the LL171 cells expressing and ISRE-Luc reporter were treated overnight. The next day, the cells were lysed in 40 μl (for a 96-well plate) of 1× Glo Lysis buffer (Promega) for 10 min at room temperature. […] was then subjected to firefly luciferase assay using 40 μl of Luciferase Assay Reagent (Promega). Luminescence was quantified with a Fluostar OPTIMA (BMG LABTECH) luminometer.

cGAS [2] = target: T2, cGAS; experiment: ISD70-driven IP-10 production in HT-29 cells, ELISA; design: endogenous in cells; conditions: ISD70 24 h; for effect on ISD70-induced IP-10 production at increased doses (in words): ASO overnight at 250 or 500 nM; for effect on ISD70-induced IP-10 production at low dose (in words): ASO overnight at 125 nM (62.5-125 nM)
Procedure: as §1, §2
Human IP-10 and IFN-β levels were measured using supernatants from the different cultures and were quantified using IP-10 (BD Biosciences, #550926) or IFN-β (PBL assay science, #41415-1) ELISA kits respectively, according to the manufacturers' protocol. Tetramethylbenzidine substrate (Thermo Fisher Scientific) was used for quantification of the cytokines on a Fluostar OPTIMA (BMG LABTECH) plate-reader.

TLR3 = target: T4, TLR3 (Homo sapiens, UniProt O15455); experiment: HEK-TLR3 NF-κB-luciferase reporter, poly(I:C) stimulation; design: host or cells: HEK-Blue hTLR3 (HEK293); conditions: 100 nM ASOs/ODNs, poly(I:C) 0.5 μg/ml
T4 sequence (O15455 24-904): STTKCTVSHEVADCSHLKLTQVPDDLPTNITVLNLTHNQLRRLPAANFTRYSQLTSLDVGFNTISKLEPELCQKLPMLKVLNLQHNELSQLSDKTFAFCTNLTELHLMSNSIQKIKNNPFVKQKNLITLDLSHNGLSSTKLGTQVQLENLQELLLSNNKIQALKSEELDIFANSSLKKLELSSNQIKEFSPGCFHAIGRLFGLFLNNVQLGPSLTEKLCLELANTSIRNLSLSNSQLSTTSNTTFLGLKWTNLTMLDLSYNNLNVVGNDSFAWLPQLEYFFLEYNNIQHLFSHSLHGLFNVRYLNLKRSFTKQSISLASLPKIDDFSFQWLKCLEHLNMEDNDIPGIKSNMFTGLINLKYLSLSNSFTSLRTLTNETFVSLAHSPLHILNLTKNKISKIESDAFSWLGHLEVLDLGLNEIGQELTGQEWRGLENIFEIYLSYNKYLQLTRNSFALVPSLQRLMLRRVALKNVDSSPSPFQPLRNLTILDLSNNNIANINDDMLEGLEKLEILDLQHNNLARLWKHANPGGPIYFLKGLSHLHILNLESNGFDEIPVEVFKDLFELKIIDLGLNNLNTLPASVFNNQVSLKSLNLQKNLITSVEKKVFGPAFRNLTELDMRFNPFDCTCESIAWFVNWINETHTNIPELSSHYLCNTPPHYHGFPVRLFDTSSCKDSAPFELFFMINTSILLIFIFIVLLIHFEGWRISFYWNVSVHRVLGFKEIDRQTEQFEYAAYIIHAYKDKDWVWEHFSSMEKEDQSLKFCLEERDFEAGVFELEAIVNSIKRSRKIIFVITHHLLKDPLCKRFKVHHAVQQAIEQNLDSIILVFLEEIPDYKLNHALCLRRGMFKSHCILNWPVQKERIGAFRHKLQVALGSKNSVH

Substance | inhibition of TLR9 sensing of ODN2006 (in words) (human TLR9) | effect on ISD70-induced IP-10 production at low dose (in words) (cGAS [2]) | further results
G*C*G*G*T*A*T*C*C*A*T*G*T*C*C*C*A*G*G*C (GCGGTATCCATGTCCCAGGC; DNA, all phosphorothioate, methylation of C not given here) [C2-Mut1-PS] | – | – | inhibition of ISD45-driven ISRE-luciferase (in words) (mouse cGAS): significantly decreased; inhibition of ISD70-driven IP-10 production (in words) (cGAS [1]): significantly decreased
mC*mU*mU*mU*mA*G*T*C*G*T*A*G*T*T*G*mC*mU*mU*mC*mC (CUUUAGTCGTAGTTGCUUCC; sugars from the 5' end m5 d10 m5, all phosphorothioate, methylation of C not given here) [ASO11] | lacked the capacity to inhibit TLR9 | – | effect on ISD70-induced IP-10 production at increased doses (in words) (cGAS [2]): blocked ISD70-induced IP-10 production
mG*mC*mG*mG*mU*A*T*A*C*A*G*G*T*C*C*mC*mA*mG*mG*mC (GCGGUATACAGGTCCCAGGC; sugars from the 5' end m5 d10 m5, all phosphorothioate, methylation of C not given here) [C2-Mut2] | – | increased inhibitory activity | –
mG*mG*mU*mC*mU*T*G*G*C*T*T*C*G*T*G*mG*mA*mG*mC*mA (mG*mG*mU*mC*mU*dT*dG*dG*dC*dT*dT*dC*dG*dT*dG*mG*mA*mG*mC*mA; antisense) [ASO5] | significantly inhibited TLR9 sensing of ODN2006 | – | inhibition of polyI:C sensing by TLR3 at 100 nM (in words) (TLR3): retained significant inhibition of polyL:C sensing
mU*mC*mC*mG*mG*C*C*T*C*G*G*A*G*T*C*mU*mC*mC*mA*mU (mU*mC*mC*mG*mG*dC*dC*dT*dC*dG*dG*dA*dG*dT*dC*mU*mC*mC*mA*mU; antisense) [ASO2up] | – | more potent inhibitor of ISD70-driven IP-10 production than ASO2 | –
mU*mC*mC*mG*mG*C*C*T*C*G*G*C*A*G*A*mU*mA*mU*mC*mG (mU*mC*mC*mG*mG*dC*dC*dT*dC*dG*dG*dC*dA*dG*dA*mU*mA*mU*mC*mG; antisense) [ASO2down] | significantly reduced TLR9 inhibition | significantly increased IP-10 production | inhibition of ISD70-driven IP-10 production (in words) (cGAS [1]): significantly less inhibitory than ASO2up
mU*mG*mA*mU*mU*C*C*A*A*A*G*C*C*A*G*mG*mG*mU*mU*mA (mU*mG*mA*mU*mU*dC*dC*dA*dA*dA*dG*dC*dC*dA*dG*mG*mG*mU*mU*mA) [ASO10] | significantly inhibited TLR9 sensing of ODN2006 | – | effect on ISD70-induced IP-10 production at increased doses (in words) (cGAS [2]): blocked ISD70-induced IP-10 production
